Source: paper PMC4058377 (Neurochemistry international, 2014)

How the values were obtained:
[1] = target: T1, all the remaining mutants as well as the background construct X7C (Homo sapiens, UniProt Q01959, C135A/C306A/C319M/C342M/C581L/C90A); experiment: Effect of Zn2+ on [3H]tyramine uptake; assay type: cell-based; conditions: 10 μM Zn^2+, 15 min prior to and during uptake
T1 sequence (Q01959 23-620 C90A/C135A/C306A/C319M/C342M/C581L): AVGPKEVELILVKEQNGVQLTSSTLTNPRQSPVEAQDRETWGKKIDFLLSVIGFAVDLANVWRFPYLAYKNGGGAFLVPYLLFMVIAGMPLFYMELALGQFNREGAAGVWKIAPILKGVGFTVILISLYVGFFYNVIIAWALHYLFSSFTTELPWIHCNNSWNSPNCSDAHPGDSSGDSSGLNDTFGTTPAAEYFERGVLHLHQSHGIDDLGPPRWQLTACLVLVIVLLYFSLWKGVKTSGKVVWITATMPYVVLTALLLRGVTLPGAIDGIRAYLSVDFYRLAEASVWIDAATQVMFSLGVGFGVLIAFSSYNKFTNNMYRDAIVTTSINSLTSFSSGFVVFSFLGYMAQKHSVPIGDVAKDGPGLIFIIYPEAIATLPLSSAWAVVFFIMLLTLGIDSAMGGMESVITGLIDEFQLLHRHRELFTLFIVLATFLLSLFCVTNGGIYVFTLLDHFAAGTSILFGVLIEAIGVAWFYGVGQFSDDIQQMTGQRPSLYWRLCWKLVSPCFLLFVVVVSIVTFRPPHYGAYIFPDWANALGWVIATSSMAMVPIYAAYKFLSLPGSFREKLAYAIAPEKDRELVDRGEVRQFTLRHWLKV

DAT Tyr335 to alanine = conditions: ref Loland et al., 2002; cited from earlier work
WT DAT = conditions: ref Loland et al., 1999, Norregaard et al., 1998; cited from earlier work
X7C DAT [2] = target: T2, X7C DAT (Homo sapiens, UniProt Q01959, C135A/C306A/C319M/C342M/C581L/C90A); experiment: [3H]MFZ 2-12 binding, membranes
T2 sequence (Q01959 23-620 C90A/C135A/C306A/C319M/C342M/C581L): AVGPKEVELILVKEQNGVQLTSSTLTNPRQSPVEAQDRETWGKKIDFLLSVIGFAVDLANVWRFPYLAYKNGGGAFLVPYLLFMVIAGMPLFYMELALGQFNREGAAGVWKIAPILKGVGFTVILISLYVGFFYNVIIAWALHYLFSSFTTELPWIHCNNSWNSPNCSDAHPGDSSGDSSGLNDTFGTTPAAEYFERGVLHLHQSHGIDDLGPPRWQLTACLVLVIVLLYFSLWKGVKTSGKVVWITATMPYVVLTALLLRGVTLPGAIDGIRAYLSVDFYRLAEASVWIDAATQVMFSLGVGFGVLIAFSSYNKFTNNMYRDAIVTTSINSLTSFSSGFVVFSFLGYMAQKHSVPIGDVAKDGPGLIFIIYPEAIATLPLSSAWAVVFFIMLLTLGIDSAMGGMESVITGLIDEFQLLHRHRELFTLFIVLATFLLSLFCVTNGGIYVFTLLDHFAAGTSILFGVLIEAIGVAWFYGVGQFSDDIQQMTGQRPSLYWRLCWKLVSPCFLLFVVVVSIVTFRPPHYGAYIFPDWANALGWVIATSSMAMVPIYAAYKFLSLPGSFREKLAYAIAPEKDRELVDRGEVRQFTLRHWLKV

X7C DAT [3] = target: T2, X7C DAT
[4] = substrate: NCCc1ccc(O)cc1; experiment: cells, lysate or membranes; conditions: other: X7C; pH 7.4; 37.0 °C

[Cl-].[Cl-].[Zn+2] [Zn^2+, ZnCl2]
effect of Zn^2+ on tyramine uptake [1]: inhibited uptake
effect of Zn^2+ on low uptake capacity (DAT Tyr335 to alanine): substantially restored
effect of Zn^2+ on dopamine uptake (WT DAT): inhibits

COC(=O)[C@H]1[C@@H](c2ccc(Cl)c(Cl)c2)C[C@@H]2CC[C@H]1N2C [MFZ 2-12]
MFZ 2-12 Bmax ± SEM (X7C DAT [2]): 5 ± 2 pmol/mg
Kd (X7C DAT [2]; read-out: MFZ 2-12 KD ± SEM): 2.2 ± 0.5 nM

NCCc1ccc(O)cc1 [tyramine]
Vmax for tyramine uptake (X7C DAT [3]): 29 ±8

B1: X7C DAT (Homo sapiens; C135A/C306A/C319M/C342M/C581L/C90A) (protein)
chain: AVGPKEVELILVKEQNGVQLTSSTLTNPRQSPVEAQDRETWGKKIDFLLSVIGFAVDLANVWRFPYLAYKNGGGAFLVPYLLFMVIAGMPLFYMELALGQFNREGAAGVWKIAPILKGVGFTVILISLYVGFFYNVIIAWALHYLFSSFTTELPWIHCNNSWNSPNCSDAHPGDSSGDSSGLNDTFGTTPAAEYFERGVLHLHQSHGIDDLGPPRWQLTACLVLVIVLLYFSLWKGVKTSGKVVWITATMPYVVLTALLLRGVTLPGAIDGIRAYLSVDFYRLAEASVWIDAATQVMFSLGVGFGVLIAFSSYNKFTNNMYRDAIVTTSINSLTSFSSGFVVFSFLGYMAQKHSVPIGDVAKDGPGLIFIIYPEAIATLPLSSAWAVVFFIMLLTLGIDSAMGGMESVITGLIDEFQLLHRHRELFTLFIVLATFLLSLFCVTNGGIYVFTLLDHFAAGTSILFGVLIEAIGVAWFYGVGQFSDDIQQMTGQRPSLYWRLCWKLVSPCFLLFVVVVSIVTFRPPHYGAYIFPDWANALGWVIATSSMAMVPIYAAYKFLSLPGSFREKLAYAIAPEKDRELVDRGEVRQFTLRHWLKV
Km [4]: 2.6 µM
